According to the CheMixHub viscosity set:
± gives the uncertainty stated by the source.

Test: xn = mol fraction of the nth substance listed

CC(C)CCl + CCC(C)O
viscosity [mPa·s], 101.33 kPa
Settings | x1 = 0.1077 | x1 = 0.2064 | x1 = 0.3079 | x1 = 0.4066 | x1 = 0.5036 | x1 = 0.648 | x1 = 0.7018 | x1 = 0.805 | x1 = 0.8972
298.15 K | 1.946 ± 0.018 | 1.381 ± 0.013 | 1.046 ± 0.011 | 0.8335 ± 0.0091 | 0.7002 ± 0.008 | 0.5685 ± 0.0069 | 0.5343 ± 0.0066 | 0.4815 ± 0.0062 | 0.4478 ± 0.006
313.15 K | 1.254 ± 0.012 | 0.9644 ± 0.0097 | 0.7565 ± 0.0081 | 0.6299 ± 0.0071 | 0.5461 ± 0.0064 | 0.4591 ± 0.0058 | 0.4357 ± 0.0056 | 0.4015 ± 0.0054 | 0.3778 ± 0.0052

O=[N+]([O-])c1ccccc1 + C1CCCCC1
viscosity [mPa·s]
Settings | 298.15 K | 303.15 K | 308.15 K | 313.15 K
101 kPa, x2 = 0.1079 | – | 1.461 ± 0.017 | – | –
101 kPa, x2 = 0.2065 | – | 1.325 ± 0.015 | – | –
101 kPa, x2 = 0.49 | – | 1.036 ± 0.012 | – | –
101 kPa, x2 = 0.5924 | – | 0.9727 ± 0.011 | – | –
101 kPa, x2 = 0.701 | – | 0.9147 ± 0.011 | – | –
101 kPa, x2 = 0.8319 | – | 0.844 ± 0.01 | – | –
101 kPa, x2 = 0.8998 | – | 0.8149 ± 0.0097 | – | –
101.3 kPa, x1 = 0.099 | 0.9069 ± 0.024 | 0.8365 ± 0.023 | 0.7722 ± 0.021 | 0.7123 ± 0.02
101.3 kPa, x1 = 0.2037 | 0.9519 ± 0.025 | 0.8775 ± 0.023 | 0.8109 ± 0.022 | 0.7485 ± 0.02
101.3 kPa, x1 = 0.297 | – | 0.9369 ± 0.025 | 0.8638 ± 0.023 | 0.7984 ± 0.022
101.3 kPa, x1 = 0.3968 | 1.089 ± 0.028 | 1 ± 0.026 | 0.925 ± 0.024 | 0.8553 ± 0.023
101.3 kPa, x1 = 0.4968 | 1.16 ± 0.029 | 1.067 ± 0.027 | – | 0.9115 ± 0.024
101.3 kPa, x1 = 0.5973 | 1.247 ± 0.031 | 1.153 ± 0.029 | 1.065 ± 0.027 | 0.9854 ± 0.025
101.3 kPa, x1 = 0.6959 | 1.346 ± 0.033 | 1.241 ± 0.031 | 1.147 ± 0.029 | 1.061 ± 0.027
101.3 kPa, x1 = 0.8011 | – | 1.367 ± 0.034 | 1.264 ± 0.031 | 1.167 ± 0.029
101.3 kPa, x1 = 0.893 | 1.603 ± 0.039 | 1.481 ± 0.036 | 1.358 ± 0.033 | 1.254 ± 0.031
101.3 kPa, x2 = 0.1908 | – | – | 1.385 ± 0.022 | –

CN(C)C=O + CC#N
Settings | viscosity [mPa·s]
298.15 K, 101 kPa, x2 = 0.0113 | 0.794 ± 0.0094
298.15 K, 101 kPa, x2 = 0.0144 | 0.792 ± 0.0094
298.15 K, 101 kPa, x2 = 0.0841 | 0.761 ± 0.009
298.15 K, 101 kPa, x2 = 0.103 | 0.747 ± 0.0089
298.15 K, 101 kPa, x2 = 0.1527 | 0.712 ± 0.0085
298.15 K, 101 kPa, x2 = 0.2044 | 0.685 ± 0.0082
298.15 K, 101 kPa, x2 = 0.2682 | 0.654 ± 0.0078
298.15 K, 101 kPa, x2 = 0.3131 | 0.615 ± 0.0074
298.15 K, 101 kPa, x2 = 0.3696 | 0.598 ± 0.0072
298.15 K, 101 kPa, x2 = 0.3798 | 0.603 ± 0.0073
298.15 K, 101 kPa, x2 = 0.4759 | 0.552 ± 0.0067
298.15 K, 101 kPa, x2 = 0.5317 | 0.529 ± 0.0064
298.15 K, 101 kPa, x2 = 0.5759 | 0.492 ± 0.006
298.15 K, 101 kPa, x2 = 0.6348 | 0.448 ± 0.0055
298.15 K, 101 kPa, x2 = 0.6876 | 0.499 ± 0.0061
298.15 K, 101 kPa, x2 = 0.743 | 0.408 ± 0.0051
298.15 K, 101 kPa, x2 = 0.7906 | 0.382 ± 0.0048
298.15 K, 101 kPa, x2 = 0.8453 | 0.382 ± 0.0048
298.15 K, 101 kPa, x2 = 0.8954 | 0.345 ± 0.0043
298.15 K, 101 kPa, x2 = 0.9485 | 0.346 ± 0.0044
298.15 K, 101 kPa, x2 = 0.9723 | 0.333 ± 0.0042
303.15 K, 101 kPa, x2 = 0.1176 | 0.6994 ± 0.018
303.15 K, 101 kPa, x2 = 0.2399 | 0.6372 ± 0.017
303.15 K, 101 kPa, x2 = 0.4348 | 0.5495 ± 0.015
303.15 K, 101 kPa, x2 = 0.5933 | 0.4816 ± 0.013
303.15 K, 101 kPa, x2 = 0.7275 | 0.4283 ± 0.011
303.15 K, 101 kPa, x2 = 0.8419 | 0.3842 ± 0.01
303.15 K, 101 kPa, x2 = 0.9418 | 0.3496 ± 0.0096
303.15 K, 101.33 kPa, x2 = 0.0953 | 0.7392 ± 0.005
303.15 K, 101.33 kPa, x2 = 0.1981 | 0.6991 ± 0.0048
303.15 K, 101.33 kPa, x2 = 0.3038 | 0.6537 ± 0.0046
303.15 K, 101.33 kPa, x2 = 0.3988 | 0.6046 ± 0.0044
303.15 K, 101.33 kPa, x2 = 0.5 | 0.5476 ± 0.0041
303.15 K, 101.33 kPa, x2 = 0.6013 | 0.494 ± 0.0039
303.15 K, 101.33 kPa, x2 = 0.6983 | 0.4471 ± 0.0037
303.15 K, 101.33 kPa, x2 = 0.8009 | 0.4023 ± 0.0035
303.15 K, 101.33 kPa, x2 = 0.8992 | 0.3607 ± 0.0034
